Assay results as given in ChEMBL document CHEMBL4800729 (2021).

How the values were obtained:
[1] = target: Myosin-IIIb (Homo sapiens) (UniProt Q8WXR4); test: MYO3B(h) Millipore kinase panel; conditions: Compound concentration 1.0 uM
[2] = target: Serine/threonine-protein kinase Chk2 (Homo sapiens) (UniProt O96017); test: CHK2(h) Millipore kinase panel; conditions: Compound concentration 1.0 uM
[3] = target: Tyrosine-protein kinase Lck (Homo sapiens) (UniProt P06239); test: Lck(h) activated Millipore kinase panel; conditions: Compound concentration 1.0 uM
[4] = target: Muscarinic acetylcholine receptor M2 (Homo sapiens) (UniProt P08172); conditions: Compound concentration 10.0 uM
[5] = target: Ephrin type-A receptor 7 (Homo sapiens) (UniProt Q15375); test: EphA7(h) Millipore kinase panel; conditions: Compound concentration 1.0 uM
[6] = target: Serine/threonine-protein kinase BRSK2 (Homo sapiens) (UniProt Q8IWQ3); test: BrSK2(h) Millipore kinase panel; conditions: Compound concentration 1.0 uM
[7] = target: Motilin receptor (Homo sapiens) (UniProt O43193); conditions: Compound concentration 10.0 uM
[8] = target: Insulin receptor (Homo sapiens) (UniProt P06213); test: IR(h),activated Millipore kinase panel; conditions: Compound concentration 1.0 uM
[9] = target: Serine/threonine-protein kinase PLK1 (Homo sapiens) (UniProt P53350); test: Plk1(h) Millipore kinase panel; conditions: Compound concentration 1.0 uM
[10] = target: Ribosomal protein S6 kinase alpha-3 (Homo sapiens) (UniProt P51812); test: Rsk2(h) Millipore kinase panel; conditions: Compound concentration 1.0 uM
[11] = target: Tribbles homolog 2 (Homo sapiens) (UniProt Q92519); test: TRB2(h) Millipore kinase panel; conditions: Compound concentration 1.0 uM
[12] = target: Serine/threonine-protein kinase Nek2 (Homo sapiens) (UniProt P51955); test: NEK2(h) Millipore kinase panel; conditions: Compound concentration 1.0 uM
[13] = target: Phosphatidylinositol 4,5-bisphosphate 3-kinase catalytic subunit gamma isoform (Homo sapiens) (UniProt P48736); test: PI3 Kinase (p120g)(h) Millipore kinase panel; conditions: Compound concentration 1.0 uM
[14] = target: 5-hydroxytryptamine receptor 6 (Homo sapiens, UniProt P50406); conditions: Compound concentration 10.0 uM
[15] = target: Non-receptor tyrosine-protein kinase TYK2 (Homo sapiens) (UniProt P29597); test: TYK2(h) Millipore kinase panel; conditions: Compound concentration 1.0 uM
[16] = target: Mitogen-activated protein kinase kinase kinase 20 (Homo sapiens) (UniProt Q9NYL2); test: ZAK(h) Millipore kinase panel; conditions: Compound concentration 1.0 uM
[17] = target: PI3-kinase p110-alpha/p85-alpha (Homo sapiens) (UniProt P27986+P42336); test: PI3 Kinase (p110a/p85a)(h) Millipore kinase panel; assay type: protein-complex assay; conditions: Compound concentration 1.0 uM
[18] = target: Sodium-dependent noradrenaline transporter (Homo sapiens) (UniProt P23975); conditions: Compound concentration 10.0 uM
[19] = target: Inhibitor of nuclear factor kappa-B kinase subunit alpha (Homo sapiens) (UniProt O15111); test: IKKalpha(h) Millipore kinase panel; conditions: Compound concentration 1.0 uM
[20] = target: Serine/threonine-protein kinase WNK2 (Homo sapiens) (UniProt Q9Y3S1); test: WNK2(h) Millipore kinase panel; conditions: Compound concentration 1.0 uM
[21] = target: Thromboxane-A synthase (Homo sapiens) (UniProt P24557); test: Inhibition of Thromboxane Synthase at compound concentration of 10.0 uM in the Eurofins-Panlabs enzyme assay (Eurofins_assay_194020); design: substrate with concentration; conditions: Compound concentration 10.0 uM
[22] = target: Dual specificity tyrosine-phosphorylation-regulated kinase 1A (Homo sapiens) (UniProt Q13627); test: DYRK1A(h) Millipore kinase panel; conditions: Compound concentration 1.0 uM
[23] = target: MAP kinase-activated protein kinase 2 (Homo sapiens) (UniProt P49137); test: MAPKAP-K2(h) Millipore kinase panel; conditions: Compound concentration 1.0 uM
[24] = target: Protein kinase C beta type (Homo sapiens) (UniProt P05771); test: PKCbetaII(h) Millipore kinase panel; conditions: Compound concentration 1.0 uM
[25] = target: 5-hydroxytryptamine receptor 2B (Homo sapiens, UniProt P41595); conditions: Compound concentration 10.0 uM
[26] = target: Rho-associated protein kinase 1 (Homo sapiens) (UniProt Q13464); test: ROCK-I(h) Millipore kinase panel; conditions: Compound concentration 1.0 uM
[27] = target: Delta-type opioid receptor (Homo sapiens) (UniProt P41143); conditions: Compound concentration 10.0 uM
[28] = target: Aurora kinase C (Homo sapiens) (UniProt Q9UQB9); test: Aurora_C(h) Millipore kinase panel; conditions: Compound concentration 1.0 uM
[29] = target: Alpha-2A adrenergic receptor (Homo sapiens) (UniProt P08913); conditions: Compound concentration 10.0 uM
[30] = target: Histamine H3 receptor (Homo sapiens) (UniProt Q9Y5N1); conditions: Compound concentration 10.0 uM
[31] = target: Serine/threonine-protein kinase MRCK alpha (Homo sapiens) (UniProt Q5VT25); test: MRCKalpha(h) Millipore kinase panel; conditions: Compound concentration 1.0 uM
[32] = target: Glutamate NMDA receptor (Rattus norvegicus) (UniProt P35439+Q00959+Q00960+Q00961+Q62645+Q8VHN2+Q9R1M7); conditions: Compound concentration 10.0 uM
[33] = target: Mitogen-activated protein kinase kinase kinase 3 (Homo sapiens) (UniProt Q99759); test: MEKK3(h) Millipore kinase panel; conditions: Compound concentration 1.0 uM
[34] = target: Beta-1 adrenergic receptor (Homo sapiens) (UniProt P08588); conditions: Compound concentration 10.0 uM
[35] = target: Activin receptor type-1B (Homo sapiens) (UniProt P36896); test: Alk4(h) Millipore kinase panel; conditions: Compound concentration 1.0 uM
[36] = target: Serine/threonine-protein kinase DCLK1 (Homo sapiens) (UniProt O15075); test: DCAMKL1(h) Millipore kinase panel; conditions: Compound concentration 1.0 uM
[37] = target: Endothelin receptor type B (Homo sapiens) (UniProt P24530); conditions: Compound concentration 10.0 uM
[38] = target: cAMP-dependent protein kinase catalytic subunit PRKX (Homo sapiens) (UniProt P51817); test: PrKX(h) Millipore kinase panel; conditions: Compound concentration 1.0 uM
[39] = target: Receptor tyrosine-protein kinase erbB-4 (Homo sapiens) (UniProt Q15303); test: ErbB4(h) Millipore kinase panel; conditions: Compound concentration 1.0 uM
[40] = target: Serine/threonine-protein kinase VRK1 (Homo sapiens) (UniProt Q99986); test: VRK1(h) Millipore kinase panel; conditions: Compound concentration 1.0 uM
[41] = target: Mitogen-activated protein kinase kinase kinase 7 (Homo sapiens) (UniProt O43318); test: TAK1(h) Millipore kinase panel; conditions: Compound concentration 1.0 uM
[42] = target: Muscarinic acetylcholine receptor M3 (Homo sapiens) (UniProt P20309); conditions: Compound concentration 10.0 uM
[43] = target: Type-2 angiotensin II receptor (Homo sapiens) (UniProt P50052); conditions: Compound concentration 10.0 uM
[44] = target: Serine/threonine-protein kinase TAO2 (Homo sapiens) (UniProt Q9UL54); test: TAO2(h) Millipore kinase panel; conditions: Compound concentration 1.0 uM
[45] = target: Serine/threonine-protein kinase pim-2 (Homo sapiens) (UniProt Q9P1W9); test: Pim-2(h) Millipore kinase panel; conditions: Compound concentration 1.0 uM
[46] = target: Transient receptor potential cation channel subfamily M member 7 (Homo sapiens) (UniProt Q96QT4); test: ChaK1(h) Millipore kinase panel; conditions: Compound concentration 1.0 uM
[47] = target: Casein kinase I isoform delta (Homo sapiens) (UniProt P48730); test: CK1delta(h) Millipore kinase panel; conditions: Compound concentration 1.0 uM
[48] = target: Misshapen-like kinase 1 (Homo sapiens) (UniProt Q8N4C8); test: MINK(h) Millipore kinase panel; conditions: Compound concentration 1.0 uM

Chain of Serine/threonine-protein kinase MRCK alpha (Homo sapiens) (Q5VT25 whole entry): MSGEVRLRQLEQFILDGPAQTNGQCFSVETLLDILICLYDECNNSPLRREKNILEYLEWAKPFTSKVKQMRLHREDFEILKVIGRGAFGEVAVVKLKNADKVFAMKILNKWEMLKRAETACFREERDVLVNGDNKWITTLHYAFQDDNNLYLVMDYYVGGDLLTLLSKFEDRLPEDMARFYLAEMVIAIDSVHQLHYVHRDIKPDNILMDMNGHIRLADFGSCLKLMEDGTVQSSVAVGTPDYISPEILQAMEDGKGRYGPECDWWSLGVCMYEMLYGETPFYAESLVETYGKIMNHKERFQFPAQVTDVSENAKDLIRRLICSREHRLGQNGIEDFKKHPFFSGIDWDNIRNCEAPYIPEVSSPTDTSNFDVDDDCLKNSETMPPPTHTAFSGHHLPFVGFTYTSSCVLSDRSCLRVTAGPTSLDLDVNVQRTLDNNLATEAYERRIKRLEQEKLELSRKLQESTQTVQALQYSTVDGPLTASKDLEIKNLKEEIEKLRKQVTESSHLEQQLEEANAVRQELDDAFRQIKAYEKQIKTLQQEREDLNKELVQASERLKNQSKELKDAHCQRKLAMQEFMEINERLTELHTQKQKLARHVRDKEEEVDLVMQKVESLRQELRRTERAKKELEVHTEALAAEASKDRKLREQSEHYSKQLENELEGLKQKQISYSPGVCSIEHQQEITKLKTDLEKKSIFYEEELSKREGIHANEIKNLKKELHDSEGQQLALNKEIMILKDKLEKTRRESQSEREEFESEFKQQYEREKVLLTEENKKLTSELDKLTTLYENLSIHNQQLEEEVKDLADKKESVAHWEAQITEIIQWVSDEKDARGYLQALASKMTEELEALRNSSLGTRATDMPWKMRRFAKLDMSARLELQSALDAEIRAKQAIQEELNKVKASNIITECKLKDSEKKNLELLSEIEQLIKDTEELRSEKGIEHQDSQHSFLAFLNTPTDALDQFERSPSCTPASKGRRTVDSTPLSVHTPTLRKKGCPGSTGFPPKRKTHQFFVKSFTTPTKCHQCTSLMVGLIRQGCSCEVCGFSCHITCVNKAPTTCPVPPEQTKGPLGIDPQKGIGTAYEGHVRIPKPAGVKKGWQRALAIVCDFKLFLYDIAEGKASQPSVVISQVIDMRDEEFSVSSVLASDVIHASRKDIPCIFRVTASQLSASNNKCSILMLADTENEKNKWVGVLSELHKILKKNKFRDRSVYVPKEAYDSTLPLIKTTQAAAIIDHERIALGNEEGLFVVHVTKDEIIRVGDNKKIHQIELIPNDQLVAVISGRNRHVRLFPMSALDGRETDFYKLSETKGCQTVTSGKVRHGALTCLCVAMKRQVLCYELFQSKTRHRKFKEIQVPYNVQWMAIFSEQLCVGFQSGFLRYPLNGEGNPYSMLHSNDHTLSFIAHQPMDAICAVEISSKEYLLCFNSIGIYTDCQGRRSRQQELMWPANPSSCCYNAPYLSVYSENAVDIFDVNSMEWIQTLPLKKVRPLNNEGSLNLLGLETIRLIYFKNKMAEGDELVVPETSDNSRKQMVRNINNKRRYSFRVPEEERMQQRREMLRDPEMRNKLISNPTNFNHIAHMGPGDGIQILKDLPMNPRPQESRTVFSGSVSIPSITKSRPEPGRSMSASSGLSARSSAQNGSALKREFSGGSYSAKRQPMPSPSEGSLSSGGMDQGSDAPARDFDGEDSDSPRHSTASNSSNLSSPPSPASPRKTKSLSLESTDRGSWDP
Chain of Mitogen-activated protein kinase kinase kinase 3 (Homo sapiens) (Q99759 whole entry): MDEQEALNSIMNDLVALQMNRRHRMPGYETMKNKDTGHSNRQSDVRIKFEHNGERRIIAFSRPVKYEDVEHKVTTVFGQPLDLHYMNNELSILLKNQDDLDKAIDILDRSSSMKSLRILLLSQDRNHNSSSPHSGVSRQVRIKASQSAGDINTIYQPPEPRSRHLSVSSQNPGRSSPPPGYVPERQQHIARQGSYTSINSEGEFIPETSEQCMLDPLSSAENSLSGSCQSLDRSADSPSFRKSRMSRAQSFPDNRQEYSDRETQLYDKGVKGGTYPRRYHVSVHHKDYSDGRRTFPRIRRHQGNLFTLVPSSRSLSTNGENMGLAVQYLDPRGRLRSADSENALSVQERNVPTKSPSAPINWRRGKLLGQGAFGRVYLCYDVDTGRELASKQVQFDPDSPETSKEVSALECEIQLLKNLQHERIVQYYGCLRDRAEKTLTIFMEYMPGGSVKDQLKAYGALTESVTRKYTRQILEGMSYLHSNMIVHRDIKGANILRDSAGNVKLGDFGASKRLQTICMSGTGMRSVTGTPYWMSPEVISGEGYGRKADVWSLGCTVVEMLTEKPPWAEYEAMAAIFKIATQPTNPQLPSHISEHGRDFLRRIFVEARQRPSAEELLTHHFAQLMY
Chain of Ephrin type-A receptor 7 (Homo sapiens) (Q15375 28-998 limits assumed): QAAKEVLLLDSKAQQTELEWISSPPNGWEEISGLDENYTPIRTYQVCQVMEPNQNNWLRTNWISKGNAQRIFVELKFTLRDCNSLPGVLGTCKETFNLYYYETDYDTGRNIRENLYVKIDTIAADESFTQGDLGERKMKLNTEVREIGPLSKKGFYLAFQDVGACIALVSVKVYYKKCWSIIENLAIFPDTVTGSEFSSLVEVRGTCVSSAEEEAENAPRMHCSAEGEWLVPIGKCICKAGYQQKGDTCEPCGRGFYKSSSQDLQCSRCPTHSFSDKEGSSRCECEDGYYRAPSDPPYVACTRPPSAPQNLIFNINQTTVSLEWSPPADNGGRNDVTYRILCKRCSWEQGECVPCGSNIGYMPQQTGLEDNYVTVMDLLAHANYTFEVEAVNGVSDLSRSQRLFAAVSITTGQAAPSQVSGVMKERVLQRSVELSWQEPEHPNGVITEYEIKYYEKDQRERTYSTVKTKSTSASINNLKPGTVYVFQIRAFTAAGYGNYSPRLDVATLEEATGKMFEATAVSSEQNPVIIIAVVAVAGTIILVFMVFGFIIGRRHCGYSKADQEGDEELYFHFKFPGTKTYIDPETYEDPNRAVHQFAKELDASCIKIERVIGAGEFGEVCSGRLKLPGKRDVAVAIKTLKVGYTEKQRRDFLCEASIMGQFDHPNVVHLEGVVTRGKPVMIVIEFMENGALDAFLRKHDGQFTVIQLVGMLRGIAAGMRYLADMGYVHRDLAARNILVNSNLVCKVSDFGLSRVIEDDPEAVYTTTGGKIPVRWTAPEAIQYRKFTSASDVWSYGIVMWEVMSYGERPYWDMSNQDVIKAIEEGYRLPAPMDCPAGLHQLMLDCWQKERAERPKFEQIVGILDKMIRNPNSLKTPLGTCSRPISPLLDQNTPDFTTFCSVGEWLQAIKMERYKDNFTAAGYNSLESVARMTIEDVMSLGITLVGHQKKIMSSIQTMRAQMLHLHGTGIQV
Chain of Serine/threonine-protein kinase Nek2 (Homo sapiens) (P51955 whole entry, canonical isoform): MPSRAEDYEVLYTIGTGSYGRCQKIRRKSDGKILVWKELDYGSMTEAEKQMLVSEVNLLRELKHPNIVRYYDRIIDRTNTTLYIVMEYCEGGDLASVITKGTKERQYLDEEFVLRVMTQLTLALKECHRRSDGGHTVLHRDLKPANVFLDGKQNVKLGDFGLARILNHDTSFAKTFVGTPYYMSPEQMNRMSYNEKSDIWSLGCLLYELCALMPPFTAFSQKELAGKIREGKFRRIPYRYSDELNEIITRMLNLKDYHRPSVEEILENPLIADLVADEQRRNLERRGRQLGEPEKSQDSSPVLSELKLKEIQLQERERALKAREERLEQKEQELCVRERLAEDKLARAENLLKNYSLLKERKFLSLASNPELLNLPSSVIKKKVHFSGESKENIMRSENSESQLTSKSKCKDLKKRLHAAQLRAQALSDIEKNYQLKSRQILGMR
Chain of Inhibitor of nuclear factor kappa-B kinase subunit alpha (Homo sapiens) (O15111 whole entry): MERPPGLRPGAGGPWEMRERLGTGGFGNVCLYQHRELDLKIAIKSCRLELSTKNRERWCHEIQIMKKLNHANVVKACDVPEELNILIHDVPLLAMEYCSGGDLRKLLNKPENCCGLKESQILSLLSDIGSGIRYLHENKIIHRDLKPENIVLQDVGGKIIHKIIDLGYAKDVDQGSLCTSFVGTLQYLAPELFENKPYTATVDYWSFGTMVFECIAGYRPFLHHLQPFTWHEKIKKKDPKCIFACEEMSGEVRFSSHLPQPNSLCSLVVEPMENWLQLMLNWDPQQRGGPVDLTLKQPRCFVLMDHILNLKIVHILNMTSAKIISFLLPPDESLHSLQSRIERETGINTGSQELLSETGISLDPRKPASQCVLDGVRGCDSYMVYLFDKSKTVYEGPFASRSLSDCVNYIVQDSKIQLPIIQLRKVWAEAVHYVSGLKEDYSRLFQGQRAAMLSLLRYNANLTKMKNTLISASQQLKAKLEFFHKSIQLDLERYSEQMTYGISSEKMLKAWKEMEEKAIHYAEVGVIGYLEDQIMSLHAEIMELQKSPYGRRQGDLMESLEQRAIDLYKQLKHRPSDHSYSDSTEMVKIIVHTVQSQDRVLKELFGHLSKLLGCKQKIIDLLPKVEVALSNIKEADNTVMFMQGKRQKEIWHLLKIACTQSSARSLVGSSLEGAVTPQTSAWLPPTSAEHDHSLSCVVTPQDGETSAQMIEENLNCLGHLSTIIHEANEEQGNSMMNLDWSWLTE
Chain of Tribbles homolog 2 (Homo sapiens) (Q92519 whole entry): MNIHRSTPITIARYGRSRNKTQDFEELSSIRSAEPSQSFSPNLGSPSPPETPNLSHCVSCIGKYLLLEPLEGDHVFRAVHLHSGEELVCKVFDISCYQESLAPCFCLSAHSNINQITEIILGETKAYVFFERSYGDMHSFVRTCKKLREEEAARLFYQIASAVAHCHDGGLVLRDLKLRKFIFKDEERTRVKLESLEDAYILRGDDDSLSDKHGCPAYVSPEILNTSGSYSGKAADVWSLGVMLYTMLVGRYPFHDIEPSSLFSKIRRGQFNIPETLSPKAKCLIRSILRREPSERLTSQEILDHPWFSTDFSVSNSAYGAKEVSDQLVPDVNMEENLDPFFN

`CC[C@@H](Nc1c(C#N)c(-c2ccc(-c3cccc(C)c3F)cc2)nc2cnccc12)C(=O)O` [BAY-091] was tested, and the inhibition [1] was 18.1%, the inhibition [2] was 5.38% and the inhibition [3] was -3.67%. For the same compound, the inhibition [4] was 8%, the inhibition [5] was 2.1% and the inhibition [6] was 3.83%. For the same compound, the inhibition [7] was -2%, the inhibition [8] was 9.43% and the inhibition [9] was 4.29%. For the same compound, the inhibition [10] was 1.78%, the inhibition [11] was 0.49% and the inhibition [12] was 15.9%. It also gave an inhibition [13] of 14.4%, an inhibition [14] of -2.99% and an inhibition [15] of 1.22%. For the same compound, the inhibition [16] was -4.94%, the inhibition [17] was 11% and the inhibition [18] was -2.64%. The inhibition [19] was 3.94%, the inhibition [20] was 3.31% and the inhibition [21] was 98%. For the same compound, the inhibition [22] was 4.22%, the inhibition [23] was 5.05% and the inhibition [24] was -1.59%. It also gave an inhibition [25] of 61%, an inhibition [26] of -2.77% and an inhibition [27] of 12.9%. For the same compound, the inhibition [28] was 4.64%, the inhibition [29] was 5.7% and the inhibition [30] was -3.06%. The inhibition [31] was -4.99%, the inhibition [32] was -3% and the inhibition [33] was -3.58%. It also gave an inhibition [34] of 4.09%, an inhibition [35] of -3.68% and an inhibition [36] of 13%. It also gave an inhibition [37] of 1%, an inhibition [38] of 2.66% and an inhibition [39] of 3.85%. For the same compound, the inhibition [40] was 3.04%, the inhibition [41] was 7.89% and the inhibition [42] was -8.52%. The inhibition [43] was 11%, the inhibition [44] was 10.3% and the inhibition [45] was 6.42%. The inhibition [46] was 0.08%, the inhibition [47] was 9.07% and the inhibition [48] was 3.07%.
